Source: ChEMBL document CHEMBL1132391, “The sulfonimidamide as a novel transition state analog for aspartic acid and metallo proteases” (Bioorg Med Chem Lett, 1999)
pIC50: −log10 of the molar value.

Assays:
Pepsin A [1] = biological target: T1, Pepsin A (Sus scrofa, UniProt P00791); assay: Tested for the inhibitory activity against pepsin
[2] = biological target: T2, Human immunodeficiency virus type 1 protease (Human immunodeficiency virus 1, UniProt Q72874); assay: Tested for the inhibitory activity against HIV protease
[3] = (§1) Tested for the inhibitory activity against Carboxypeptidase A (mixture of diastereomers)
[4] = as §1; remark: listed apart in the source
Pepsin A [5] = biological target: T1, Pepsin A; assay: Tested for the inhibitory activity against pepsin (Second pure eluting diastereomer )
[6] = biological target: T2, Human immunodeficiency virus type 1 protease; assay: Tested for the inhibitory activity against HIV protease (First pure eluting diastereomer)
[7] = biological target: T2, Human immunodeficiency virus type 1 protease; assay: Tested for the inhibitory activity against HIV protease (Second pure eluting diastereomer )
Pepsin A [8] = biological target: T1, Pepsin A; assay: Tested for the inhibitory activity against pepsin (First pure eluting diastereomer)

T1 sequence (P00791 whole entry): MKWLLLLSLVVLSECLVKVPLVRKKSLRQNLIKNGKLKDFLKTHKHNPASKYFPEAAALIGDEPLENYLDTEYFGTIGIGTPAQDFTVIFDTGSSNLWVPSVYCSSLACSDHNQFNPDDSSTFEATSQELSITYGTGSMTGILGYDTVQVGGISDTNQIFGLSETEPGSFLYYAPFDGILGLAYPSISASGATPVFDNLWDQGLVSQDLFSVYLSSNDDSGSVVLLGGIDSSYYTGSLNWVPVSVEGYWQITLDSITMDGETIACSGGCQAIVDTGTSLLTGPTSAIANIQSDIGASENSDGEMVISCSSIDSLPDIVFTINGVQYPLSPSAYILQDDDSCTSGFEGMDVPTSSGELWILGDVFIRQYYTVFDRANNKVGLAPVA

Row | Structure (SMILES) | pIC50 (Pepsin A [1]) | pIC50 [2] | also measured
1 | N[S+]([O-])(CCc1ccccc1)=NCC(=O)OCc1ccccc1 (configuration not stated) | 3.15 | < 2.30 | 
2 | O=C(CCc1ccccc1)N[C@@H](Cc1ccccc1)C(=O)O |  |  | Km [3]: 2.1
3 | N[S+]([O-])(CCc1ccccc1)=N[C@@H](Cc1ccccc1)C(=O)O (some centres not stated) |  |  | pIC50 [4]: 4.70
4 | COC(=O)[C@H](Cc1ccccc1)N=[S+](N)([O-])CCc1ccccc1 (some centres not stated) |  |  | pIC50 (Pepsin A [5]): 3.15; pIC50 [6]: 3.00; pIC50 [7]: < 2.30; pIC50 (Pepsin A [8]): 3.15

The next lines start with results.

Row | pIC50 (Pepsin A [1]) | pIC50 [2] | Structure (SMILES) | also measured
5 | < 2.52 | < 2.52 | COC(=O)[C@H](Cc1ccccc1)NC(=O)CCc1ccccc1 | 
6 | < 2.52 | < 2.52 | O=C(CCc1ccccc1)NCC(=O)OCc1ccccc1 | 
